According to patent publication US20200179319A1, “PHARMACEUTICAL FORMULATIONS AND THEIR USE” (Signum Biosciences, Inc., priority 2016, published 2020):

Tests used:
Assay type in all cases: physicochemical
[1] = Stability Study 2 conducted at 5° C.: storage stability of a formulation comprising the disodium salt, HPLC; settings: for weight percentage of the component, 1 months: 1 month at 5° C.; for weight percentage of the component, 2 months: 2 months at 5° C.; for weight percentage of the component, 3 months: 3 months at 5° C.; for weight percentage of the component, 6 months: 6 months at 5° C.; for weight percentage of the component, 9 months: 9 months at 5° C.; for weight percentage of the component, 12 months: 12 months at 5° C.; for weight percentage of the component, 18 months: 18 months at 5° C.; for weight percentage of the component, 24 months: 24 months at 5° C.; for weight percentage of the component, Initial: storage at 5° C.
Protocol: The stability of a formulation comprising the disodium salt of 4-(((R)-1-carboxy-2-(((2E,6E)-3,7,11-trimethyldodeca-2,6,10-trien-1-yl)thio)ethyl)amino)-4-oxobutanoic acid was determined after storage at 5° C. for a period of 1 month, 2 months, 3 months, 6 months, 9 months, 12 months, 18 months, and 24 months. In each case, the percentage of 4-(((R)-1-carboxy-2-(((2E,6E)-3,7,11-trimethyldodeca-2,6,10-trien-1-yl)thio)ethyl)amino)-4-oxobutanoic acid remaining at each time point was determined by use of HPLC. Each of the percentages in the table below are expressed at the weight percentage of the component as compared to the total weight of the composition.

[2] = Stability Study 1: storage stability of a formulation comprising the disodium salt, HPLC; settings: 25° C., heading 30° C.; for % weight in formulation after 1 month: after 1 month storage; for % weight in formulation after 3 months: after 3 months storage; for % weight in formulation after 6 months: after 6 months storage; for % weight in formulation after 9 months: after 9 months storage; for Initial (% weight of formulation): formulation comprising the disodium salt
Protocol: The stability of a formulation comprising the disodium salt of […] In each case, the percentage of 4-(((R)-1-carboxy-2-(((2E,6E)-3,7,11-trimethyldodeca-2,6,10-trien-1-yl)thio)ethyl)amino)-4-oxobutanoic acid remaining at each time point was determined by use of HPLC.

[3] = Screening Study (Example 5): sulfoxide formed in API solution with each agent, HPLC; settings: for (% area sulfoxide for each agent/% area sulfoxide in Blank) / Average % area sulfoxide for 3 runs per agent: 24 hours exposed to air at room temperature, not protected from light; for (% area sulfoxide for each agent/% area sulfoxide in Blank): API stock in argon-sparged methanol; for % area sulfoxide relative to % area Control: Control: no agent, stored at 5° C. and protected from light; for Average % area sulfoxide for 3 runs per agent: pH 7.4 to 7.5 buffer, API disodium salt solution plus agent
Protocol: A buffer solution was prepared by adding 0.72 g of Na2HPO4, 0.24 g KH2PO4 and 500 mL of deionized water into a container and mixing. The pH of the mixture was adjusted to 7.4 to 7.5 using NaOH and H3PO4.
(§1) A solution of each agent in the table below was prepared by adding 500 mg or each agent into a 25 mL volumetric flask and filling the flask to volume by the addition of the prepared buffer solution.
A 6% solution of API was prepared by adding 3.0 g the disodium salt of 4-(((R)-1-carboxy-2-(((2E,6E)-3,7,11-trimethyldodeca-2,6,10-trien-1-yl)thio)ethyl)amino)-4-oxobutanoic acid to a 50 mL volumetric flask filling the flask to volume by the addition of argon-sparged methanol, followed by mixing.
(§2) A screen was performed for each agent as follows: (1) 2.5 mL of the stock solution of API and 2.5 mL of each agent was added into scintillation vial, the vial was capped and the contents were mixed (repeated three times for each agent); and (2) allowing each resulting mixture to sit for 24 hours exposed to air at room temperature and not protected from light. A blank solution was prepared (3×) by adding buffer solution into the 100 mL volumetric flask in place of the agent and was stored under the same conditions as the other samples, 24 hours exposed to air at room temperature and not protected from light. After 24 hours, the contents of each vial were transferred to a 100 mL volumetric flask and each volumetric flask was filled to volume by the addition of methanol, and an aliquot of each mixture was removed and analyzed by HPLC.
The area of the sulfoxide of 4-(((R)-1-carboxy-2-(((2E,6E)-3,7,11-trimethyldodeca-2,6,10-trien-1-yl)thio)ethyl)amino)-4-oxobutanoic acid produced in each solution was calculated as follows: % area sulfoxide=Rsulfoxide/(Rparent+Rsulfoxide), wherein Rsuffoxide=the area under the response of the sulfoxide in the HPLC trace, and Rparent=the area under the response of 4-(((R)-1-carboxy-2-(((2E,6E)-3,7,11-trimethyldodeca-2,6,10-trien-1-yl)thio)ethyl)amino)-4-oxobutanoic acid in the HPLC trace. The control sample in Table 8 contained no agent, was stored at 5° C. and protected from light.

[4] = Screening Study (Example 3): sulfoxide formed in API solution with each agent, HPLC; settings: 24 hours exposed to air at room temperature, not protected from light; for Average % area sulfoxide for 3 runs per agent: API disodium salt solution plus agent
Protocol: A buffer solution was prepared by adding 0.72 g of Na2HPO4, 0.24 g KH2PO4 and 500 mL of deionized water into a container and mixing.
as §1
A 6% solution of API was prepared by adding 3.0 g the disodium salt of 4-(((R)-1-carboxy-2-(((2E,6E)-3,7,11-trimethyldodeca-2,6,10-trien-1-yl)thio)ethyl)amino)-4-oxobutanoic acid to a 50 mL volumetric flask and filling the flask to volume by the addition of methanol, followed by mixing.
as §2, with “a 100 mL volumetric flask” for “scintillation vial, the vial was capped”, “agent.” for “agent and was stored under the same conditions as the other samples, 24 hours exposed to air at room temperature and not protected from light.”, “hours,” for “hours, the contents of each vial were transferred to a 100 mL volumetric flask and”
The area of the sulfoxide of 4-(((R)-1-carboxy-2-(((2E,6E)-3,7,11-trimethyldodeca-2,6,10-trien-1-yl)thio)ethyl)amino)-4-oxobutanoic acid produced in each solution was calculated as follows: % area sulfoxide=Rsulfoxide/(Rparent+Rsulfoxide), wherein Rsuffoxide=the area under the response of the sulfoxide in the HPLC trace, and Rparent=the area under the response of 4-(((R)-1-carboxy-2-(((2E,6E)-3,7,11-trimethyldodeca-2,6,10-trien-1-yl)thio)ethyl)amino)-4-oxobutanoic acid in the HPLC trace.

Row | Structure (SMILES) | weight percentage of the component, 1 months [1] [weight percentage] | weight percentage of the component, 2 months [1] [weight percentage] | weight percentage of the component, 3 months [1] [weight percentage] | weight percentage of the component, 6 months [1] [weight percentage] | weight percentage of the component, 9 months [1] [weight percentage] | weight percentage of the component, 12 months [1] [weight percentage] | weight percentage of the component, 18 months [1] [weight percentage] | weight percentage of the component, 24 months [1] [weight percentage] | weight percentage of the component, Initial [1] [weight percentage] | % weight in formulation after 1 month [2] [%] | % weight in formulation after 3 months [2] [%] | % weight in formulation after 6 months [2] [%] | % weight in formulation after 9 months [2] [%] | Initial (% weight of formulation) [2] [%] | (% area sulfoxide for each agent/% area sulfoxide in Blank) [3] | % area sulfoxide relative to % area Control [3] | Average % area sulfoxide for 3 runs per agent [3] [%] | % area sulfoxide relative to % area Control [4] | (% area sulfoxide for each agent/% area sulfoxide in Blank) [4] | Average % area sulfoxide for 3 runs per agent [4] [%]
1 | CC(C)=CCC/C(C)=C/CC/C(C)=C/CSC[C@H](NC(=O)CCC(=O)O)C(=O)O [4-(((R)-1-carboxy-2-(((2E,6E)-3,7,11-trimethyldodeca-2,6,10-trien-1-yl)thio)ethyl)amino)-4-oxobutanoic acid] | 3.01 | 3.00 | 3.10 | 3.04 | 3.03 | 3.06 | 3.10 | 3.05 | 3.09 | 2.97 | 3.13 | 2.92 | 2.87 | 3.09 | – | – | – | – | – | –
2 | O=C1O[C@H]([C@@H](O)CO)C(O)=C1O [Ascorbic acid] | – | – | – | – | – | – | – | – | – | – | – | – | – | – | 2.39 | 1.812 | 2.771 | – | – | –
3 | Cc1cc(C(C)(C)C)c(O)c(C(C)(C)C)c1 [Butylated hydroxytoluene (BHT), Butylated hydroxytoluene] | – | – | – | – | – | – | – | – | – | – | – | – | – | – | 1.02 | 0.227 | 1.186 | 0.115 | 0.97 | 1.092
4 | O=C(CO)[C@@H](O)[C@H](O)[C@H](O)CO [Fructose] | – | – | – | – | – | – | – | – | – | – | – | – | – | – | – | – | – | 0.146 | About 1 | 1.123
5 | COC(=O)c1ccc(O)cc1 [Methylparaben] | 0.17 | 0.17 | 0.17 | 0.18 | 0.17 | 0.17 | 0.17 | 0.15 | 0.17 | 0.17 | 0.17 | 0.17 | 0.16 | 0.17 | – | – | – | – | – | –
6 | CCCOC(=O)c1ccc(O)cc1 [Propylparaben] | 0.032 | 0.032 | 0.033 | 0.032 | 0.033 | 0.032 | 0.033 | 0.030 | 0.034 | 0.033 | 0.034 | 0.032 | 0.033 | 0.034 | – | – | – | – | – | –
7 | CC(C)=CCC/C(C)=C/CC/C(C)=C/C[S+]([O-])C[C@H](NC(=O)CCC(=O)O)C(=O)O (stereo partly drawn) [Sulfoxide of 4-(((R)-1-carboxy-2-(((2E,6E)-3,7,11-trimethyldodeca-2,6,10-trien-1-yl)thio)ethyl)amino)-4-oxobutanoic acid] | 0.039 | 0.076 | 0.112 | 0.048 | 0.049 | 0.050 | 0.052 | 0.044 | 0.037 | 0.031 | 0.113 | 0.053 | 0.134 | 0.037 | – | – | – | – | – | –
8 | CC(C)(C)c1cc(O)ccc1O [Tert-butylhydroquinone (TBHQ), Tert-butylhydroquinone] | – | – | – | – | – | – | – | – | – | – | – | – | – | – | 7.38 | 7.587 | 8.546 | – | – | –
9 | CC(=O)Oc1c(C)c(C)c2c(c1C)CCC(C)(CCC[C@H](C)CCC[C@H](C)CCCC(C)C)O2 (some centres unmarked) [Vitamin E acetate] | – | – | – | – | – | – | – | – | – | – | – | – | – | – | 1.01 | 0.208 | 1.167 | – | – | –
10 | O=S([O-])CO.[Na+] [sodium hydroxymethylsulfinate] | – | – | – | – | – | – | – | – | – | – | – | – | – | – | – | – | – | 0.571 | 1.37 | 1.548
